From patent US12324802B2, “Modulators of cystic fibrosis transmembrane conductance regulator” (Vertex Pharmaceuticals Incorporated, priority 2020, dated 2025) come the findings set out here.

Bounds are passed on as bounds.

T1 sequence (P13569 with tags, fused parts or gaps DEL508-508): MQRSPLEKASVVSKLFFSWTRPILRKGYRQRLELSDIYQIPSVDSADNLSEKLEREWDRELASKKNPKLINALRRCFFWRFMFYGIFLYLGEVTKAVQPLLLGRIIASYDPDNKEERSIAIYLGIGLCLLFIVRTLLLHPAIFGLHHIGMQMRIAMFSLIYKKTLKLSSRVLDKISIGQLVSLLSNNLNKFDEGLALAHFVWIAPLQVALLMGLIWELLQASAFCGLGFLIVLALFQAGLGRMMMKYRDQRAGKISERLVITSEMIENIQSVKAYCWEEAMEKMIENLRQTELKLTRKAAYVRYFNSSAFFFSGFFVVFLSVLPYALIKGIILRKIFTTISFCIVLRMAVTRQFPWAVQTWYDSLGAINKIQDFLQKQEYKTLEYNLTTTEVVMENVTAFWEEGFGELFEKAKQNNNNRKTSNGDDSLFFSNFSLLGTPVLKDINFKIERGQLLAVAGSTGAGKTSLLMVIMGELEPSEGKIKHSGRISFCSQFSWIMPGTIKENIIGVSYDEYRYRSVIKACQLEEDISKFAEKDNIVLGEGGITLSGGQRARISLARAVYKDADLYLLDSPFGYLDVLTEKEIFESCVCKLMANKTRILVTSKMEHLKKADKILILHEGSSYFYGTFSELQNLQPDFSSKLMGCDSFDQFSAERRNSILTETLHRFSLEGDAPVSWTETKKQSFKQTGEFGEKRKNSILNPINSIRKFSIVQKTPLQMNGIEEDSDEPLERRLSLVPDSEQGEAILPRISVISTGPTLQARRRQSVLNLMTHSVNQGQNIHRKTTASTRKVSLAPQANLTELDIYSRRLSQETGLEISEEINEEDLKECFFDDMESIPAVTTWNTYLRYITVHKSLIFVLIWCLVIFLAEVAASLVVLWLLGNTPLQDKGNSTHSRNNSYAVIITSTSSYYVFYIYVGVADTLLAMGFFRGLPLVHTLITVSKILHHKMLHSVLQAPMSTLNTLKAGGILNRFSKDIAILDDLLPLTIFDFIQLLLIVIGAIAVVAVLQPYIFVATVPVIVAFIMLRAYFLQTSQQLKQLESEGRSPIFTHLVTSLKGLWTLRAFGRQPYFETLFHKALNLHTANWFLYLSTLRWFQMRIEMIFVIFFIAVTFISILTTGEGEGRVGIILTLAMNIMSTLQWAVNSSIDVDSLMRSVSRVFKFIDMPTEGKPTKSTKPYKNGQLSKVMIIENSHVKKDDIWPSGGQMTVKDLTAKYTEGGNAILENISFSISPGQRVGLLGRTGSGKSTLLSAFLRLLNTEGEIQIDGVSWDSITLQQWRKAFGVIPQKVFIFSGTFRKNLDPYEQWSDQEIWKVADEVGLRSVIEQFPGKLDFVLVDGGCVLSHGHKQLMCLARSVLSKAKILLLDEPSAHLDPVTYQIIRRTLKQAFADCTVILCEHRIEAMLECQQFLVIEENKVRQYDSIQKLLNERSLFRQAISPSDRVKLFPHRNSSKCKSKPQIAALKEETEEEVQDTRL

This assay concerns the target T1, CFTR (F508del/MF-HBE cells) (Homo sapiens, UniProt P13569, DEL508-508).
T1 construct: human bronchial epithelial (HBE) cells derived from CF subjects heterozygous for F508del and a minimal function CFTR mutation; endogenous in cells; host or cells: primary human bronchial epithelial cells from CF subjects (F508del/MF genotype)
Kind of assay: Ussing chamber assay of CFTR-mediated short-circuit currents (identification of potentiator compounds). In kind it is cell-based. The settings on record: CFTR-mediated ISC in F508del/MF-HBE cells; incubated 18-24 hours at 37° C. with 10 μM (14S)-8-[3-(2-{dispiro[2.0.2.1]heptan-7-yl}ethoxy)-1H-pyrazol-1-yl]-...-2,2,4-trione, 20% human serum. The method, boiled down: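 Short-circuit current was voltage-clamped at 0 mV and 37 °C in pH 7.4 HEPES buffers, with amiloride (30 μM) on the apical side. The CFTR component was defined as forskolin (20 μM) peak minus residual current after BPO/GlyH-101/CFTRinh-172 at 20 μM each. Cells had been pretreated 18–24 h with potentiator concentrations and 10 μM corrector in 20% human serum, kept throughout the measurement.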
Take `Nc1cc(C(F)(F)F)c2nc1-c1nnc(o1)C(O)(C(F)(F)F)CCCCCC1CCS(=O)(=O)N21` (single isomer, unassigned) [Compound 112, 20-amino-6-hydroxy-6,18-bis(trifluoromethyl)-22-oxa-15λ6-thia-3,4,16,21-tetraazatetracyclo[15.3.1.12,5.012,16]docosa-1(21),2,4,17,19-pentaene-15,15-dione]: the EC50 was 500 to 1000 nM. The value for `Nc1cc(C(F)(F)F)c2nc1-c1nnc(o1)C(O)(C(F)(F)F)CCCCCC1CCS(=O)(=O)N21` (single isomer, unassigned) [Compound 113, 20-amino-6-hydroxy-6,18-bis(trifluoromethyl)-22-oxa-15λ6-thia-3,4,16,21-tetraazatetracyclo[15.3.1.12,5.012,16]docosa-1(21),2,4,17,19-pentaene-15,15-dione] was greater than 1000 nM; that for `COc1cc(N)c2nc1N1CCC[C@H]1CCCCCC(O)(C(F)(F)F)C1=NN=C2O1` (single isomer, unassigned) [Compound 114] was less than 500 nM. For the molecule `COc1cc(N)c2nc1N1CCC[C@H]1CCCCCC(O)(C(F)(F)F)C1=NN=C2O1` (single isomer, unassigned) [Compound 115], the EC50 is greater than 1000 nM. For `Nc1cc(C(F)(F)F)c2nc1-c1nnc(o1)C(O)(C(F)(F)F)CCCCC[C@@H]1COCC(=O)N21` (single isomer, unassigned) [Compound 116], the EC50 is less than 500 nM. For the molecule `Nc1cc(C(F)(F)F)c2nc1-c1nnc(o1)C(O)(C(F)(F)F)CCCCC[C@@H]1COCC(=O)N21` (single isomer, unassigned) [Compound 117], the half-maximal effective concentration (EC50) is greater than 1000 nM. As for `Nc1cc(C(F)(F)F)c2nc1-c1nnc(o1)C(O)(C(F)(F)F)CCCCCC(c1ccccc1)N2` (single isomer, unassigned) [Compound 119, 17-amino-12-phenyl-6,15-bis(trifluoromethyl)-19-oxa-3,4,13,18-tetrazatricyclo[12.3.1.12,5]nonadeca-1(18),2,4,14,16-pentaen-6-ol], the EC50 is less than 500 nM. For `Nc1cc(C(F)(F)F)c2nc1-c1nnc(o1)C(O)(C(F)(F)F)CCCCCC(c1ccccc1)N2` (single isomer, unassigned) [Compound 120, 17-amino-12-phenyl-6,15-bis(trifluoromethyl)-19-oxa-3,4,13,18-tetrazatricyclo[12.3.1.12,5]nonadeca-1(18),2,4,14,16-pentaen-6-ol], the EC50 was less than 500 nM. Regarding `Nc1cc(C(F)(F)F)c2nc1-c1nnc(o1)C(O)(C(F)(F)F)CCCCCC(c1ccccc1)N2` (single isomer, unassigned) [Compound 122, 17-amino-12-phenyl-6,15-bis(trifluoromethyl)-19-oxa-3,4,13,18-tetrazatricyclo[12.3.1.12,5]nonadeca-1(18),2,4,14,16-pentaen-6-ol], the EC50 is greater than 1000 nM. Take `Nc1cc(C(F)(F)F)c2nc1-c1nnc(o1)C(O)(C(F)(F)F)c1ccc(F)c(c1)CCC[C@@H]1CCCN21` (single isomer, unassigned) [Compound 130]: the 50% effective concentration (EC50) is greater than 1000 nM.

For `Nc1cc(C(F)(F)F)c2nc1-c1nnc(o1)C(O)(C(F)(F)F)c1ccc(F)c(c1)CCC[C@@H]1CCCN21` (single isomer, unassigned) [Compound 131], the EC50 is less than 500 nM. Consider `Nc1cc(S(=O)(=O)c2ccccc2)c2nc1-c1nnc(o1)C(O)(C(F)(F)F)CCCCC[C@@H]1CCCN21` (single isomer, unassigned) [Compound 140], for which the EC50 was greater than 1000 nM. Turning to `Nc1cc(S(=O)(=O)c2ccccc2)c2nc1-c1nnc(o1)C(O)(C(F)(F)F)CCCCC[C@@H]1CCCN21` (single isomer, unassigned) [Compound 141], the concentration giving a half-maximal response (EC50) was less than 500 nM. Take `CN(C)C(=O)C1CCCCCC(O)(C(F)(F)F)C2=NN=C(O2)c2nc(c(C(F)(F)F)cc2N)N1` (single isomer, unassigned) [Compound 148, 17-amino-6-hydroxy-N,N-dimethyl-6,15-bis(trifluoromethyl)-19-oxa-3,4,13,18-tetrazatricyclo[12.3.1.12,5]nonadeca-1(18),2,4,14,16-pentaene-12-carboxamide]: the EC50 is less than 500 nM. For `CN(C)C(=O)C1CCCCCC(O)(C(F)(F)F)C2=NN=C(O2)c2nc(c(C(F)(F)F)cc2N)N1` (single isomer, unassigned) [Compound 149, 17-amino-6-hydroxy-N,N-dimethyl-6,15-bis(trifluoromethyl)-19-oxa-3,4,13,18-tetrazatricyclo[12.3.1.12,5]nonadeca-1(18),2,4,14,16-pentaene-12-carboxamide], the EC50 is greater than 1000 nM. Regarding `CN(C)C(=O)C1CCCCCC(O)(C(F)(F)F)C2=NN=C(O2)c2nc(c(C(F)(F)F)cc2N)N1` (single isomer, unassigned) [Compound 150, 17-amino-6-hydroxy-N,N-dimethyl-6,15-bis(trifluoromethyl)-19-oxa-3,4,13,18-tetrazatricyclo[12.3.1.12,5]nonadeca-1(18),2,4,14,16-pentaene-12-carboxamide], the EC50 was greater than 1000 nM. The value for `CN(C)C(=O)C1CCCCCC(O)(C(F)(F)F)C2=NN=C(O2)c2nc(c(C(F)(F)F)cc2N)N1` (single isomer, unassigned) [Compound 151, 17-amino-6-hydroxy-N,N-dimethyl-6,15-bis(trifluoromethyl)-19-oxa-3,4,13,18-tetrazatricyclo[12.3.1.12,5]nonadeca-1(18),2,4,14,16-pentaene-12-carboxamide] was greater than 1000 nM; that for `Nc1cc(S(=O)(=O)c2ccc(OC(F)(F)F)cc2)c2nc1-c1nnc(o1)C(O)(C(F)(F)F)CCCCC[C@@H]1CCCN21` (single isomer, unassigned) [Compound 152] was less than 500 nM. `Nc1cc(S(=O)(=O)c2ccc(OC(F)(F)F)cc2)c2nc1-c1nnc(o1)C(O)(C(F)(F)F)CCCCC[C@@H]1CCCN21` (single isomer, unassigned) [Compound 153]: the EC50 was greater than 1000 nM.

Regarding `Nc1cc(C(F)(F)F)c2nc1-c1nnc(o1)[C@@](O)(C(F)(F)F)CCCCCC(C(=O)O)N2` (single isomer, unassigned) [Compound 155], the EC50 is greater than 1000 nM. Turning to `Nc1cc(C(F)(F)F)c2nc1-c1nnc(o1)[C@@](O)(C(F)(F)F)CCCCCC(C(=O)O)N2` (single isomer, unassigned) [Compound 156], the EC50 is less than 500 nM.

Consider `Nc1cc(C(F)(F)F)c2nc1-c1nnc(o1)[C@@](O)(C(F)(F)F)CCCCCC(C(=O)N1CCCC1)N2` (single isomer, unassigned) [Compound 157], for which the EC50 was less than 500 nM.

For the molecule `Nc1cc(C(F)(F)F)c2nc1-c1nnc(o1)[C@@](O)(C(F)(F)F)CCCCCC(C(=O)N1CCCC1)N2` (single isomer, unassigned) [Compound 158], the EC50 is greater than 1000 nM. The value for `COc1cc2nc(c1N)-c1nnc(o1)C(O)(C(F)(F)F)CCCCC[C@@H]1CCCN21` (single isomer, unassigned) [Compound 159] was greater than 1000 nM; that for `COc1cc2nc(c1N)-c1nnc(o1)C(O)(C(F)(F)F)CCCCC[C@@H]1CCCN21` (single isomer, unassigned) [Compound 160] was greater than 1000 nM; that for `CS(=O)(=O)c1cc(N)c2nc1N1CCC[C@H]1CCCCCC(O)(C(F)(F)F)C1=NN=C2O1` (single isomer, unassigned) [Compound 161] was less than 500 nM. On to `Nc1cc(C(F)(F)F)c2nc1-c1nnc(o1)C(O)(C(F)(F)F)CCCOC[C@@H]1CCCN21` (single isomer, unassigned) [Compound 167], for which the EC50 is less than 500 nM. Take `COC(=O)c1cc(N)c2nc1N1CCC[C@H]1CCCCCC(O)(C(F)(F)F)C1=NN=C2O1` (single isomer, unassigned) [Compound 169]: the EC50 was greater than 1000 nM. Regarding `COC(=O)c1cc(N)c2nc1N1CCC[C@H]1CCCCCC(O)(C(F)(F)F)C1=NN=C2O1` (single isomer, unassigned) [Compound 170], the EC50 is less than 500 nM.

On to `CC1(C)CCCCC(O)(C(F)(F)F)C2=NN=C(O2)c2nc(c(C(F)(F)F)cc2N)NC1` (single isomer, unassigned) [Compound 171, 17-amino-11,11-dimethyl-6,15-bis(trifluoromethyl)-19-oxa-3,4,13,18-tetrazatricyclo[12.3.1.12,5]nonadeca-1(18),2,4,14,16-pentaen-6-ol], for which the concentration for a half-maximal effect (EC50) is less than 500 nM.

Turning to `CC1(C)CCCCC(O)(C(F)(F)F)C2=NN=C(O2)c2nc(c(C(F)(F)F)cc2N)NC1` (single isomer, unassigned) [Compound 172, 17-amino-11,11-dimethyl-6,15-bis(trifluoromethyl)-19-oxa-3,4,13,18-tetrazatricyclo[12.3.1.12,5]nonadeca-1(18),2,4,14,16-pentaen-6-ol], the 50% effective concentration (EC50) is less than 500 nM. Turning to `CC1(CO)CCCCC[C@](O)(C(F)(F)F)C2=NN=C(O2)c2nc(c(C(F)(F)F)cc2N)N1` (single isomer, unassigned) [Compound 174], the EC50 is less than 500 nM. Take `CC1(CO)CCCCC[C@](O)(C(F)(F)F)C2=NN=C(O2)c2nc(c(C(F)(F)F)cc2N)N1` (single isomer, unassigned) [Compound 175]: the EC50 was less than 500 nM. For `CC(C)C1CCCCC[C@](O)(C(F)(F)F)C2=NN=C(O2)c2nc(c(C(F)(F)F)cc2N)N1` (single isomer, unassigned) [Compound 178], the EC50 is less than 500 nM. Turning to `CC(C)C1CCCCC[C@](O)(C(F)(F)F)C2=NN=C(O2)c2nc(c(C(F)(F)F)cc2N)N1` (single isomer, unassigned) [Compound 179], the concentration for a half-maximal effect (EC50) is less than 500 nM.

Turning to `Nc1cc(C(F)(F)F)c2nc1-c1nnc(o1)[C@@](O)(C(F)(F)F)CCCCCC(Cc1ccccc1)N2` (single isomer, unassigned) [Compound 180], the EC50 was less than 500 nM.

Broadly, the EC50 is the concentration needed to bring the measured effect to its halfway point.
